Measurements published in patent publication US8952024B2, “Herbicidal pyrimidone derivatives” (E I du Pont de Nemours and Company, priority 2009, dated 2015).

Columns and labels:
Assay in all cases: Test B pre-/postemergence plant response
Type in all cases: in vivo
[1] = tested on: Italian ryegrass (Lolium multiflorum)
How it was run: (§1)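 Visually scored on a 0 to 100 scale after 13 to 15 days in greenhouse versus controls. Treatments were preemergence on seeded loam/sand soil and postemergence on 1- to 4-leaf plants.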

[2] = tested on: Surinam grass (Brachiaria decumbens)
How it was run: as §1

[3] = tested on: bermudagrass (Cynodon dactylon)
How it was run: as §1

[4] = tested on: blackgrass (Alopecurus myosuroides)
How it was run: as §1

[5] = tested on: cocklebur (Xanthium strumarium)
How it was run: as §1

[6] = tested on: corn (Zea mays)
How it was run: as §1

[7] = tested on: downy bromegrass (Bromus tectorum)
How it was run: as §1

[8] = tested on: green foxtail (Setaria viridis)
How it was run: as §1

[9] = tested on: kochia (Kochia scoparia); conditions: Preemergence
How it was run: as §1

[10] = tested on: lambsquarters (Chenopodium album)
How it was run: as §1

[11] = tested on: large crabgrass (Digitaria sanguinalis)
How it was run: as §1

[12] = tested on: pigweed (Amaranthus retroflexus)
How it was run: as §1

[13] = tested on: ragweed (common ragweed, Ambrosia elatior)
How it was run: as §1

[14] = tested on: soybean (Glycine max)
How it was run: as §1

[15] = tested on: velvetleaf (Abutilon theophrasti)
How it was run: as §1

[16] = tested on: wild oat (Avena fatua)
How it was run: as §1

[17] = tested on: yellow nutsedge (Cyperus esculentus)
How it was run: as §1

[18] = 250 g ai/ha, Preemergence, 0 to 100 scale
[19] = Postemergence, 62 g ai/ha, scale 0 (no effect) to 100 (complete control), 13 to 15 days
[20] = Postemergence, 125 g ai/ha, visual rating after 13 to 15 days, scale 0 (no effect) to 100 (complete control)
[21] = Postemergence, 250 g ai/ha, scale 0 to 100
[22] = Preemergence, 31 g ai/ha, scale 0 to 100 (0 no effect, 100 complete control)
[23] = Preemergence, 62 g ai/ha, scale 0 to 100, 0 no effect, 100 complete control
[24] = Preemergence, 125 g ai/ha, 0 to 100 scale
[25] = Postemergence, 31 g ai/ha, scale 0 to 100 (0 no effect, 100 complete control)

SMILES: Cc1ccc(C)c(-n2c(-c3ccccc3)ncc(C(=O)C3=C(O)CCCC3=O)c2=O)c1 [Compound 29]
- Plant response rating, Ryegrass, Italian [1, 18]: 40
- Plant response rating, Ryegrass, Italian [1, 19]: 20
- Plant response rating, Ryegrass, Italian [1, 20]: 40
- Ryegrass, Italian plant response rating [1, 21]: 45
- Plant response rating, Ryegrass, Italian [1, 22]: 0
- Plant response rating, Ryegrass, Italian [1, 23]: 0
- Ryegrass, Italian plant response rating [1, 24]: 10
- Plant response rating, Surinam Grass [2, 18]: 95
- Plant response rating, Surinam Grass [2, 19]: 50
- Plant response rating, Surinam Grass [2, 20]: 70
- Surinam Grass plant response rating [2, 21]: 85
- Plant response rating, Surinam Grass [2, 22]: 0
- Plant response rating, Surinam Grass [2, 23]: 20
- Surinam Grass plant response rating [2, 24]: 90
- Plant response rating, Bermudagrass [3, 18]: 100
- Plant response rating, Bermudagrass [3, 25]: 85
- Plant response rating, Bermudagrass [3, 19]: 90
- Plant response rating, Bermudagrass [3, 20]: 90
- Bermudagrass plant response rating [3, 21]: 100
- Plant response rating, Bermudagrass [3, 22]: 98
- Plant response rating, Bermudagrass [3, 23]: 100
- Bermudagrass plant response rating [3, 24]: 100
- Plant response rating, Blackgrass [4, 18]: 50
- Plant response rating, Blackgrass [4, 25]: 10
- Plant response rating, Blackgrass [4, 19]: 20
- Plant response rating, Blackgrass [4, 20]: 40
- Blackgrass plant response rating [4, 21]: 50
- Plant response rating, Blackgrass [4, 22]: 5
- Plant response rating, Blackgrass [4, 23]: 5
- Blackgrass plant response rating [4, 24]: 50
- Plant response rating, Cocklebur [5, 18]: 90
- Plant response rating, Cocklebur [5, 25]: 85
- Plant response rating, Cocklebur [5, 19]: 95
- Plant response rating, Cocklebur [5, 20]: 95
- Cocklebur plant response rating [5, 21]: 98
- Plant response rating, Cocklebur [5, 22]: 5
- Plant response rating, Cocklebur [5, 23]: 80
- Cocklebur plant response rating [5, 24]: 90
- Plant response rating, Corn [6, 18]: 0
- Plant response rating, Corn [6, 25]: 20
- Plant response rating, Corn [6, 19]: 35
- Plant response rating, Corn [6, 20]: 50
- Corn plant response rating [6, 21]: 60
- Plant response rating, Corn [6, 22]: 0
- Plant response rating, Corn [6, 23]: 0
- Corn plant response rating [6, 24]: 0
- Plant response rating, Bromegrass, Downy [7, 18]: 5
- Plant response rating, Bromegrass, Downy [7, 25]: 5
- Plant response rating, Bromegrass, Downy [7, 19]: 10
- Plant response rating, Bromegrass, Downy [7, 20]: 40
- Bromegrass, Downy plant response rating [7, 21]: 45
- Plant response rating, Bromegrass, Downy [7, 22]: 0
- Plant response rating, Bromegrass, Downy [7, 23]: 0
- Bromegrass, Downy plant response rating [7, 24]: 0
- Plant response rating, Foxtail, Green [8, 18]: 100
- Plant response rating, Foxtail, Green [8, 25]: 60
- Plant response rating, Foxtail, Green [8, 19]: 75
- Plant response rating, Foxtail, Green [8, 20]: 75
- Foxtail, Green plant response rating [8, 21]: 90
- Plant response rating, Foxtail, Green [8, 22]: 0
- Plant response rating, Foxtail, Green [8, 23]: 40
- Foxtail, Green plant response rating [8, 24]: 100
- Plant response rating, Kochia ([9]; 250 g ai/ha, 0 to 100 scale): 100
- Plant response rating, Kochia ([9]; 31 g ai/ha, scale 0 to 100 (0 no effect, 100 complete control)): 98
- Plant response rating, Kochia ([9]; 62 g ai/ha, scale 0 to 100, 0 no effect, 100 complete control): 100
- Kochia plant response rating ([9]; 125 g ai/ha, 0 to 100 scale): 100
- Plant response rating, Lambsquarters [10, 18]: 100
- Plant response rating, Lambsquarters [10, 19]: 85
- Plant response rating, Lambsquarters [10, 20]: 90
- Lambsquarters plant response rating [10, 21]: 98
- Plant response rating, Lambsquarters [10, 22]: 100
- Plant response rating, Lambsquarters [10, 23]: 100
- Lambsquarters plant response rating [10, 24]: 100
- Plant response rating, Crabgrass, Large [11, 18]: 100
- Plant response rating, Crabgrass, Large [11, 25]: 45
- Plant response rating, Crabgrass, Large [11, 19]: 50
- Plant response rating, Crabgrass, Large [11, 20]: 55
- Crabgrass, Large plant response rating [11, 21]: 80
- Plant response rating, Crabgrass, Large [11, 22]: 98
- Plant response rating, Crabgrass, Large [11, 23]: 100
- Crabgrass, Large plant response rating [11, 24]: 100
- Plant response rating, Pigweed [12, 18]: 100
- Plant response rating, Pigweed [12, 19]: 65
- Plant response rating, Pigweed [12, 20]: 80
- Pigweed plant response rating [12, 21]: 85
- Plant response rating, Pigweed [12, 22]: 100
- Plant response rating, Pigweed [12, 23]: 100
- Pigweed plant response rating [12, 24]: 100
- Plant response rating, Ragweed [13, 18]: 100
- Plant response rating, Ragweed [13, 19]: 85
- Plant response rating, Ragweed [13, 20]: 100
- Ragweed plant response rating [13, 21]: 100
- Plant response rating, Ragweed [13, 22]: 80
- Plant response rating, Ragweed [13, 23]: 90
- Ragweed plant response rating [13, 24]: 100
- Plant response rating, Soybean [14, 18]: 95
- Plant response rating, Soybean [14, 19]: 95
- Plant response rating, Soybean [14, 20]: 98
- Soybean plant response rating [14, 21]: 98
- Plant response rating, Soybean [14, 22]: 20
- Plant response rating, Soybean [14, 23]: 85
- Soybean plant response rating [14, 24]: 90
- Plant response rating, Velvetleaf [15, 18]: 100
- Plant response rating, Velvetleaf [15, 19]: 55
- Plant response rating, Velvetleaf [15, 20]: 80
- Velvetleaf plant response rating [15, 21]: 98
- Plant response rating, Velvetleaf [15, 22]: 10
- Plant response rating, Velvetleaf [15, 23]: 90
- Velvetleaf plant response rating [15, 24]: 100
- Plant response rating, Oat, Wild [16, 18]: 50
- Plant response rating, Oat, Wild [16, 19]: 50
- Plant response rating, Oat, Wild [16, 20]: 60
- Oat, Wild plant response rating [16, 21]: 80
- Plant response rating, Oat, Wild [16, 22]: 0
- Plant response rating, Oat, Wild [16, 23]: 0
- Oat, Wild plant response rating [16, 24]: 45
- Plant response rating, Nutsedge, Yellow [17, 18]: 85
- Plant response rating, Nutsedge, Yellow [17, 19]: 50
- Plant response rating, Nutsedge, Yellow [17, 20]: 70
- Nutsedge, Yellow plant response rating [17, 21]: 70
- Plant response rating, Nutsedge, Yellow [17, 22]: 0
- Plant response rating, Nutsedge, Yellow [17, 23]: 30
- Nutsedge, Yellow plant response rating [17, 24]: 60
